One data set concerns CD34 (+) cells. To be noted: MM patients, combined with G-CSF, single administration; cited from earlier work.
The target of data set [1] is T1, CXCR4 (Homo sapiens, UniProt P61073). The data set is described as follows: Phase I study: receptor occupancy and pharmacodynamic effect. Format: in vivo. Also on record: endogenous in cells; host or cells: peripheral blood cells (CD34+, lymphocyte, mononuclear populations) of healthy volunteers. To be noted: post dosing. From the text: (§1) Mean CD34+ count at baseline was 5.81/μL.
Target sequence in this assay (P61073 whole entry): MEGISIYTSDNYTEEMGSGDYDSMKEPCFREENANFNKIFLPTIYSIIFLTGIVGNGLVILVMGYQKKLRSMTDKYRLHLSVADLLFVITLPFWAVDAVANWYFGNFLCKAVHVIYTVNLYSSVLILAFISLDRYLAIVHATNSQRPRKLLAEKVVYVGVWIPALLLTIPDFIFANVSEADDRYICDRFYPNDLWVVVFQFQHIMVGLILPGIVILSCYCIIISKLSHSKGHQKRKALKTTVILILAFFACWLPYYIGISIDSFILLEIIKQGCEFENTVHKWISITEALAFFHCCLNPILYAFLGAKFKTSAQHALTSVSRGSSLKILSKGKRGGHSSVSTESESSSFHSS

The subject of data set [2] is long term repopulating cells. As to conditions: mice, single injection; cited from earlier work.
The conditions of data set [3]: human, in vivo.
Description: To test the effect of BL-8040 (SEQ ID NO: 1) on mesenchymal stem cell mobilization a two-part study was performed. The first part of the study was randomized, double-blind, placebo-controlled dose escalation study. In each cohort, six volunteers were administrated twice (altogether) on day one and two with BL-8040 (First cohort 0.5 mg/kg, Second cohort 0.75 mg/kg and Third 1.0 mg/kg) and 2 were administrated with placebo. […] BL-8040's safety, tolerability and pharmacokinetic profile were also evaluated on this part.
The next data set concerns HSC (CD34+ cells). The data set is described as follows: Phase I study: mobilization of HSC (CD34+ cells). Format: in vivo, human.
Text: as §1

The target in data set [4] is T1, CXCR4. As to conditions: cited from earlier work.
Target sequence in this assay (P61073 whole entry, species assumed): as the sequence (P61073 whole entry) above
Another data set relates to white blood cells (WBC). The data set is described as follows: Phase I study: WBC mobilization to peripheral blood. The format is in vivo, human. To be noted: 4 hours post dose, baseline 6.31.
Text: as §1

Data set [5] relates to T cells, B cells and NK cells. Nature of the data set: Phase I study: FACS analysis of lymphocyte mobilization. Format: in vivo, human.
Text: as §1
For orientation: Flow cytometry measures light scatter and fluorescence of single cells or particles in a stream.

Data set [6] relates to Mesenchymal Stem Cells (MSCs). The data set is described as follows: Phase I study: MSC mobilization, MesenCult assay. The format is in vivo, human. As to conditions: for MSC mobilization into peripheral blood, single agent: MesenCult. As for the experimental part: To evaluate the number of MSCs in the blood, a MesenCult assay was used at different time points following BL-8040 administration (0.75 mg/Kg FIGS. 1-2, or 1 mg/Kg FIGS. 3-4)) to healthy subjects-as described above.
White blood cells (WBCs) obtained from 100 μl blood, were plated in MesenCult medium (2 ml).
The number of MSCs colonies and MS cells were visually scored 15 days later, using a light microscope, and the frequency of MSC colonies and MSCs was calculated.

Another data set concerns HPC colony forming cells. Nature of the data set: Phase I study: HPC colony forming cell mobilization. To be noted: 4-8 hr post injection. Format: in vivo, human.
Text: as §1

In another data set the test system is MSCs. To be noted: without cytokines such as PDGF, VEGF, IGF-1 or SCF; cited from earlier work.

Entries after “also recorded” stand apart in the source; their conditions may differ.

Take “4F-benzoyl-Arg-Arg-Nal-Cys-Tyr-Cit-Lys-DLys-Pro-Tyr-Arg-Cit-Cys-Arg-NH2 [BL-8040]”: the “stem cell mobilization (CD34 (+) cell collection in one aphaeresis procedure)” value with CD34 (+) cells is reported as “efficient stem cell mobilizer”. Further, the “duration of receptor occupancy and pharmacodynamics effect” value on CXCR4 [1] was at least 24 h. Also, in data set [2], the “mobilization of long term repopulating cells for transplantation” value was “sufficient to mobilize enough long term repopulating cells for transplantation”. In data set [3], the appearance in plasma result is reported as “rapid”. Further, in [3], the half-life entry is listed as “short”. Further, the “mean CD34 count” value in the data set on HSC (CD34+ cells) (0.5 mg/kg, 4 hour post the second dose, placebo 9) turned out to be 38 µL⁻¹; with HSC (CD34+ cells) (0.5 mg/kg, four hours post dose, baseline 5.81/μL, placebo 8), 37 µL⁻¹; in the data set with HSC (CD34+ cells) (0.75 mg/kg, 4 hour post the second dose, placebo 9) it was 46 µL⁻¹; with HSC (CD34+ cells) (0.75 mg/kg, four hours post dose, baseline 5.81/μL, placebo 8), 31 µL⁻¹; with HSC (CD34+ cells) (1 mg/kg, 4 hour post the second dose, placebo 9), 58 µL⁻¹; in the data set on HSC (CD34+ cells) (1 mg/kg, four hours post dose, baseline 5.81/μL, placebo 8), 35 µL⁻¹. For the same compound, the “CD34+ count in all subjects” value with HSC (CD34+ cells) (1 mg/kg, 4 hours post single administration, all subjects) is recorded as “more than 20 CD34+/μL”. The “mobilization of HSC (CD34+ cells)” value in the data set with HSC (CD34+ cells) (across all doses tested) is recorded as “Dramatic mobilization”. The “off-rate of the receptor” value at CXCR4 [4] is listed as “slow off-rate”. For the same compound, the Kd on CXCR4 [4] (high affinity, read-out: affinity of binding to CXCR4) was 1 to 2 nM. Further, the “mean WBC count” value in the data set on white blood cells (WBC) came to 2.968e+10 L⁻¹. Further, the “mobilization of T cells, B cells and NK cells” value in [5] is “substantial mobilization”. Moreover, in [6] (4-8 hr post injection), the “mobilization of Mesenchymal Stem Cells (MSCs)” value was “rapid mobilization of MSCs”. Besides, the “MSC mobilization into peripheral blood, single agent” value in data set [6] (Cohort 2 (0.75 mg/Kg), 15 days culture (FIGS. 1-2), 0.75 mg/kg) is “mobilizes mesenchymal stem cells (MSCs) into peripheral blood (PB); also recorded: mobilizes MSCs into the PB”; in [6] (Cohort 3 (1 mg/Kg), 15 days culture (FIGS. 3-4), 1 mg/kg) it was “mobilizes mesenchymal stem cells (MSCs) into peripheral blood (PB); also recorded: mobilizes MSCs into the PB”. Moreover, in the data set with HPC colony forming cells, the “mobilization of HPC colony forming cells” value is on record as “rapid mobilization”.
Consider `c1cc(CN2CCCNCCNCCCNCC2)ccc1CN1CCCNCCNCCCNCC1` [AMD3100], for which the “MSC mobilization by the agent alone” value with MSCs is recorded as “not sufficient to mobilize MSCs”.

(Values after US20180142211A1, “METHODS OF MESENCHYMAL STEM CELL MOBILIZATION AND EXPANSION” (Biokine Therapeutics Ltd, priority 2015, published 2018).)
